pIC50: −log10 of the molar value.

The term pIC50 denotes the IC50 on a negative log10 scale, so that one unit is a factor of ten. The low end stands for a high IC50, the high end for a low IC50.

Chain of human PD-L1 (Q9NZQ7 19-239): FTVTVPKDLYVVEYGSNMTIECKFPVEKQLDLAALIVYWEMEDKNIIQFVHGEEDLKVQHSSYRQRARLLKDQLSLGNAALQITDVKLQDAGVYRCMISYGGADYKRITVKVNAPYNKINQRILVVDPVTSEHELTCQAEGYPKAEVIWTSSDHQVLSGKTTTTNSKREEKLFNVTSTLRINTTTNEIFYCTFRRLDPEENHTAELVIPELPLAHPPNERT

This test addresses human PD-L1 (Homo sapiens (Human), UniProt Q9NZQ7). Description: Enzyme-Linked Immunosorbent Assay—ELISA (PD-1/PD-L1 binding). The settings on record: plates coated with human PD-L1; Human PD-1 and biotin added; absorbance at 450 nm. How it is done:
96 Well plates were coated with 1 μg/mL of human PD-L1 (obtained from R&D) in PBS overnight at 4° C. The wells were then blocked with 2% BSA in PBS (W/V) with 0.05% TWEEN-20 for 1 hour at 37° C. The plates were washed 3 times with PBS/0.05% TWEEN-20 and the compounds were serial diluted (1:5) in dilution medium and added to the ELISA plates. Human PD-1 and biotin 0.3 μg/mL (ACRO Biosystems) were added and incubated for 1 hour at 37° C. then washed 3 times with PBS/0.05% TWEEN-20. A second block was performed with 2% BSA in PBS (W/V)/0.05% TWEEN-20 for 10 min at 37° C. and the plates were washed 3 times with PBS/0.05% TWEEN-20. Streptavidin-HRP was added for 1 hour at 37° C. then the plates were washed 3 times with PBS/0.05% TWEEN-20. TMB substrate was added and reacted for 20 min at 37° C. A stop solution (2 N aqueous H2SO4) was added. The absorbance was read at 450 nm using a micro-plate spectrophotometer. The results are shown in Table 1: IC50 values are provided as follows: from 1000 to 10,000 nM (+); from 10 up to 1000 nM (++); less than 10 nM (+++).
In general terms: In an ELISA, binding on a coated surface is turned into a signal by an enzyme label.
Consider `COc1nc(-c2cccc(-c3cccc(NC(=O)c4cn(C)c(=O)n(C)c4=O)c3Cl)c2F)ccc1CNC[C@@H]1CCC(=O)N1` [Compound 1.063], for which the pIC50 was > 8.00. As to `CCc1nc(-c2cccc(-c3cccc(NC(=O)c4cn(C)c(=O)n(C)c4=O)c3Cl)c2Cl)ccc1CN1CC(C(=O)O)C1` [Compound 1.071], the pIC50 is > 8.00. Then `CCOc1nc(-c2cccc(-c3cccc(NC(=O)c4cn(C)c(=O)n(C)c4=O)c3C)c2Cl)ccc1CNC[C@@H]1CCC(=O)N1` [Compound 1.047], with > 8.00; and `COc1nc(-c2cccc(-c3cccc(NC(=O)c4cn(C)c(=O)n(C)c4=O)c3C)c2Cl)ccc1CN[C@H]1CCOC[C@@H]1O` [Compound 1.013], with > 8.00.

In the case of `COc1nc(-c2cccc(-c3cccc(NC(=O)c4cn(C)c(=O)n(C)c4=O)c3C)c2Cl)ccc1CN1CC(C(=O)O)C1` [Compound 1.082], the pIC50 was > 8.00. As to `COc1nc(-c2cccc(-c3cccc(NC(=O)c4cn(C)c(=O)n(C)c4=O)c3C)c2Cl)ccc1CNC[C@@H](C)O` [Compound 1.028], the pIC50 was > 8.00.

Take `COc1nc(-c2cccc(-c3cccc(NC(=O)c4cn(C)c(=O)n(C)c4=O)c3Cl)c2Cl)ccc1CNC[C@@H](C)O` [Compound 1.032]: the pIC50 is > 8.00. In the case of `COc1nc(-c2cccc(-c3cccc(NC(=O)c4cn(C)c(=O)n(C)c4=O)c3Cl)c2Cl)ccc1CNCC1(O)CC1` [Compound 1.035], the pIC50 is > 8.00.

As for `COc1nc(-c2cccc(-c3cccc(NC(=O)c4cn(C)c(=O)n(C)c4=O)c3Cl)c2Cl)ccc1CNCC(C)(C)C(N)=O` [Compound 1.057], the pIC50 is > 8.00. In turn, `Cn1cc(C(=O)Nc2cccc(-c3cccc(-c4ccc(CNC[C@@H]5CCC(=O)N5)c(O)n4)c3Cl)c2Cl)c(=O)n(C)c1=O` [Compound 1.033] showed a pIC50 of 6.00 to 8.00. Regarding `COc1cc(-c2cccc(-c3cccc(NC(=O)c4cn(C)c(=O)n(C)c4=O)c3Cl)c2Cl)ncc1CNC[C@@H]1CCC(=O)N1` [Compound 1.093], the pIC50 was > 8.00.

Regarding `COc1nc(-c2cccc(-c3cccc(NC(=O)c4cn(C)c(=O)n(C)c4=O)c3C)c2Cl)ccc1CN1CC(C(C)(C)O)C1` [Compound 1.041], the pIC50 is > 8.00. With `CNCc1ccc(-c2cccc(-c3cccc(NC(=O)c4cn(C)c(=O)n(C)c4=O)c3C)c2Cl)nc1OC` [Compound 1.031], the pIC50 is > 8.00. The figure for `COc1nc(-c2cccc(-c3cccc(NC(=O)c4cn(C)c(=O)n(C)c4=O)c3C)c2Cl)ccc1CN[C@@H]1CCOC[C@H]1O` [Compound 1.014] is > 8.00; for `COc1nc(-c2cccc(-c3cccc(NC(=O)c4cn(C)c(=O)n(C)c4=O)c3C)c2Cl)ccc1CNC(C)(C)CCO` [Compound 1.050] it is > 8.00; for `COc1nc(-c2cccc(-c3cccc(NC(=O)c4cn(C)c(=O)n(C)c4=O)c3Cl)c2Cl)ccc1CNC[C@@H]1CCC(=O)N1` [Compound 1.088] it is > 8.00.

In the case of `COc1nc(-c2cccc(-c3cccc(NC(=O)c4cn(C)c(=O)n(C)c4=O)c3Cl)c2Cl)ccc1CN1CC(C)(C(=O)O)C1` [Compound 1.085], the pIC50 was > 8.00. The figure for `COc1nc(-c2cccc(-c3cccc(NC(=O)c4cn(C)c(=O)n(C)c4=O)c3C)c2Cl)cnc1CN[C@@H]1CCOC[C@@H]1O` [Compound 1.078] is > 8.00. Then `COc1nc(-c2cccc(-c3cccc(NC(=O)c4cccn(C)c4=O)c3Cl)c2Cl)ccc1CNC[C@@H]1CCC(=O)N1` [Compound 1.069], with > 8.00; and `COc1nc(-c2cccc(-c3cccc(NC(=O)c4cn(C)c(=O)n(C)c4=O)c3Cl)c2Cl)cnc1CN[C@@H]1CCOC[C@@H]1O` [Compound 1.005], with > 8.00; and `COc1nc(-c2cccc(-c3cccc(NC(=O)c4cn(C)c(=O)n(C)c4=O)c3Cl)c2)ccc1CNC[C@@H]1CCC(=O)N1` [Compound 1.067], with > 8.00. The figure for `COc1nc(-c2cccc(-c3cccc(NC(=O)c4cn(C)c(=O)n(C)c4=O)c3Cl)c2Cl)cnc1CN1CC(C)(C(=O)O)C1` [Compound 1.099] is > 8.00; for `COc1nc(-c2cccc(-c3cccc(NC(=O)c4cn(C)c(=O)n(C)c4=O)c3C)c2Cl)ccc1CNCC(C)(C)O` [Compound 1.055] it is > 8.00. Turning to `COc1nc(-c2cccc(-c3cccc(NC(=O)c4cn(C)c(=O)n(C)c4=O)c3Cl)c2Cl)cnc1CN1CC2(CCNC2=O)C1` [Compound 1.102], the pIC50 was > 8.00.

Regarding `COc1nc(-c2cccc(-c3cccc(NC(=O)c4cn(C)c(=O)n(C)c4=O)c3C)c2Cl)ccc1CN[C@@H]1COC[C@@H]1O` [Compound 1.012], the pIC50 was > 8.00. Then `COc1nc(-c2cccc(-c3cccc(NC(=O)c4cn(C)c(=O)n(C)c4=O)c3C)c2Cl)ccc1CN[C@@H]1CCOC[C@@H]1O` [Compound 1.008], with > 8.00; and `COc1nc(-c2cccc(-c3cccc(NC(=O)c4cn(C)c(=O)n(C)c4=O)c3Cl)c2Cl)cnc1CN1CC2(CCC(=O)N2)C1` [Compound 1.101], with > 8.00. Turning to `CCc1nc(-c2cccc(-c3cccc(NC(=O)c4cn(C)c(=O)n(C)c4=O)c3Cl)c2Cl)ccc1CNC[C@@H]1CCC(=O)N1` [Compound 1.076], the pIC50 was > 8.00. Turning to `COc1nc(-c2cccc(-c3cccc(NC(=O)c4cn(C)c(=O)n(C)c4=O)c3Cl)c2Cl)ccc1CNC[C@H](C)O` [Compound 1.034], the pIC50 was > 8.00.

Consider `COc1nc(-c2cccc(-c3cccc(NC(=O)c4cn(C)c(=O)n(C)c4=O)c3Cl)c2C)ccc1CNC[C@@H]1CCC(=O)N1` [Compound 1.068], for which the pIC50 was > 8.00. The figure for `COc1nc(-c2cccc(-c3cccc(NC(=O)c4cn(C)c(=O)n(C)c4=O)c3Cl)c2Cl)ccc1CNCCCO` [Compound 1.036] is > 8.00; for `COc1nc(-c2cccc(-c3cccc(NC(=O)c4cn(C)c(=O)n(C)c4=O)c3Cl)c2Cl)cnc1CN1CCCC[C@@H]1C(=O)O` [Compound 1.094] it is > 8.00; for `CCc1nc(-c2cccc(-c3cccc(NC(=O)c4cn(C)c(=O)n(C)c4=O)c3Cl)c2Cl)ccc1CN[C@@H]1CCOC[C@@H]1O` [Compound 1.075] it is > 8.00. The figure for `COc1nc(-c2cccc(-c3cccc(NC(=O)c4cn(C)c(=O)n(C)c4=O)c3Cl)c2Cl)cnc1CN1CC(O)C1` [Compound 1.098] is > 8.00; for `COc1nc(-c2cccc(-c3cccc(NC(=O)c4cn(C)c(=O)n(C)c4=O)c3C)c2C)ccc1CNC[C@@H]1CCC(=O)N1` [Compound 1.062] it is > 8.00. Then `COc1nc(-c2cccc(-c3cccc(NC(=O)c4cn(C)c(=O)n(C)c4=O)c3Cl)c2Cl)ccc1CNC[C@H]1CCC(=O)N1` [Compound 1.066], with > 8.00. As to `COc1nc(-c2cccc(-c3cccc(NC(=O)c4c[nH]c(=O)n(C)c4=O)c3C)c2Cl)ccc1CNC[C@@H]1CCC(=O)N1` [Compound 1.065], the pIC50 is > 8.00.

`COc1nc(-c2cccc(-c3cccc(NC(=O)c4cn(C)c(=O)n(C)c4=O)c3C)c2Cl)ccc1CN[C@H](C)CO` [Compound 1.020]: the pIC50 is > 8.00. Take `COc1nc(-c2cccc(-c3cccc(NC(=O)c4cn(C)c(=O)n(C)c4=O)c3Cl)c2Cl)ccc1CN1CC(NS(C)(=O)=O)C1` [Compound 1.073]: the pIC50 is > 8.00.

As to `COc1nc(-c2cccc(-c3cccc(NC(=O)c4cn(C)c(=O)n(C)c4=O)c3C)c2Cl)ccc1CNC[C@@H](O)CO` [Compound 1.044], the pIC50 was > 8.00.

The values are drawn from patent US11713307B2, “Heteroaryl-biphenyl amides for the treatment of PD-L1 diseases” (CHEMOCENTRYX, INC., priority 2019, dated 2023).
